Earlier results in US11220552B2, “Anti-CD20 combinations for treating tumors” (BIRDIE BIOPHARMACEUTICALS, INC., priority 2016, dated 2022).

Columns and labels:
[1] = tested on: rituximab-sensitive and resistant cells
[2] = tested on: three human lymphoma cell lines
CD20 = target: T1, CD20 (Homo sapiens, UniProt P11836); details: Asp101 instead of Asn101 in CDR3 of variable heavy chain, versus rituximab CDRs
T1 sequence (P11836 1-297): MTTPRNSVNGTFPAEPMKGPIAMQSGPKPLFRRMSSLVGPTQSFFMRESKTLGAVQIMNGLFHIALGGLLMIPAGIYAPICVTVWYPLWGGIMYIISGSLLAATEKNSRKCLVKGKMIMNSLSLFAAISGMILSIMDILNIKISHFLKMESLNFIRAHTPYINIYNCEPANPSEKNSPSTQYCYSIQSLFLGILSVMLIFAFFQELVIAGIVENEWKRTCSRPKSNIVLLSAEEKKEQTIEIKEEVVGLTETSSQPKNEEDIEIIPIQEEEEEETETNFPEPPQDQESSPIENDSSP

In the case of “GA101: fully humanized, type II, glycoengineered IgG1 anti-CD20 mAb (Glycart/Roche)”, the “activity in rituximab-resistant cell lines” value ([1]; rituximab-resistant cell lines) is listed as “activity”.
For “Ocrelizumab: type I second generation humanized anti-CD20 mAb (Genentech/Roche/Biogen)”, the “ADCC activity compared with rituximab” value (lymphoid malignancies) is given as “increased” and the “CDC activity compared with rituximab” value (lymphoid malignancies) is given as “lower”.
For “Ofatumumab: fully human type I anti-CD20 IgG1kappa mAb (Genmab)”, the “potency compared with rituximab” value ([1]; both rituximab-sensitive and resistant cells) is given as “more potent than rituximab”.
In the case of “Veltuzumab: humanized, type I anti-CD20 IgG1 mAb with CDRs identical to rituximab except Asp101 instead of Asn101”, the CDC cytotoxicity [2] is given as “increased” and the off-rates (CD20) is given as “significantly slower”.
